Laboratory results: the supplement of paper PMC13380429

Experiments:
Details in all cases: 72 h
[1] = test system: HepG2; assay: cell viability relative to DMSO; higher = less toxic
[2] = test system: Calu-3; assay: as above
[3] = test system: Vero E6; assay: as above
[4] = test system: U2OS; assay: as above
[5] = test system: Caco-2; assay: as above
[6] = test system: HepG2; assay: relative viability EC50 (midpoint between 100% and the lowest measured viability); higher = less toxic
[7] = test system: Calu-3; assay: as above
[8] = test system: Vero E6; assay: as above
[9] = test system: U2OS; assay: as above
[10] = test system: Caco-2; assay: as above
[11] = test system: HepG2; assay: drug sensitivity score (DSS) for viability; higher = more toxic; extreme values may be limits of the assay
[12] = test system: Calu-3; assay: as above
[13] = test system: Vero E6; assay: as above
[14] = test system: U2OS; assay: as above
[15] = test system: Caco-2; assay: as above

| Compound | cell viability ([1]; 1 nM) [%] | cell viability ([1]; 10 nM) [%] | cell viability ([1]; 100 nM) [%] | cell viability ([1]; 1000 nM) [%] | cell viability ([1]; 10000 nM) [%] | cell viability ([2]; 1 nM) [%] | cell viability ([2]; 10 nM) [%] | cell viability ([2]; 100 nM) [%] | cell viability ([2]; 1000 nM) [%] | cell viability ([2]; 10000 nM) [%] | cell viability ([3]; 1 nM) [%] | cell viability ([3]; 10 nM) [%] | cell viability ([3]; 100 nM) [%] | cell viability ([3]; 1000 nM) [%] | cell viability ([3]; 10000 nM) [%] | cell viability ([4]; 1 nM) [%] | cell viability ([4]; 10 nM) [%] | cell viability ([4]; 100 nM) [%] | cell viability ([4]; 1000 nM) [%] | cell viability ([4]; 10000 nM) [%] | cell viability ([5]; 1 nM) [%] | cell viability ([5]; 10 nM) [%] | cell viability ([5]; 100 nM) [%] | cell viability ([5]; 1000 nM) [%] | cell viability ([5]; 10000 nM) [%] | relative viability EC50 [6] [µM] | relative viability EC50 [7] [µM] | relative viability EC50 [8] [µM] | relative viability EC50 [9] [µM] | relative viability EC50 [10] [µM] | drug sensitivity score [11] | drug sensitivity score [12] | drug sensitivity score [13] | drug sensitivity score [14] | drug sensitivity score [15] |
| --- | --- | --- | --- | --- | --- | --- | --- | --- | --- | --- | --- | --- | --- | --- | --- | --- | --- | --- | --- | --- | --- | --- | --- | --- | --- | --- | --- | --- | --- | --- | --- | --- | --- | --- | --- |
| COc1cc(C(=O)N(CC[C@H]2CCCN2C)C/C(C)=C/c2ccccc2F)cc(OC)c1OC (racemic) | 103 | 102 | 95.8 | 104 | 86.6 | 93.5 | 108 | 103 | 104 | 94.4 | 102 | 102 | 103 | 99.5 | 99 | 98.6 | 96.8 | 102 | 99.2 | 97.7 | 97.4 | 98.7 | 99.7 | 103 | 93.5 | > 10 | > 10 | > 10 | > 10 | > 10 | 0.1 | 0 | 0 | 0 | 0 |
| Cc1ccc(OC[C@@H](O)[C@H](C)NC(C)C)c2c1CCC2 (racemic) [ICI-118,551] | 111 | 106 | 100 | 111 | 95.3 | 121 | 98.9 | 109 | 105 | 112 | 98.6 | 94.2 | 101 | 90.5 | 94.1 | 108 | 98.5 | 113 | 100 | 113 | 109 | 103 | 99.2 | 109 | 97.8 | > 10 | > 10 | > 10 | > 10 | > 10 | 0 | 0 | 0 | 0 | 0 |
| CCCCCCCCCCCCCCCCCCCCCCCCCCCCO [1-octacosanol] | 103 | 109 | 97.6 | 116 | 102 | 99.1 | 105 | 102 | 95.5 | 96.1 | 95.5 | 98.5 | 96.7 | 95.6 | 104 | 97.6 | 96.5 | 102 | 96.2 | 96 | 95.4 | 85.8 | 97 | 91.8 | 95 | > 10 | > 10 | > 10 | > 10 | > 10 | 0 | 0 | 0 | 0 | 0 |
| O=C(O)c1ccc(N2C(=O)/C(=C/c3ccc(-c4ccc([N+](=O)[O-])cc4)o3)C=C2c2ccccc2)cc1 [4E1RCat] | 104 | 108 | 91.4 | 102 | 88.7 | 93.1 | 105 | 95.2 | 87.3 | 100 | 98.1 | 100 | 99 | 98.7 | 99.3 | 98.4 | 98.1 | 102 | 94.7 | 92.5 | 97.3 | 97.1 | 98.2 | 96.4 | 87.5 | > 10 | > 10 | > 10 | > 10 | > 10 | 0 | 0 | 0 | 0 | 0.2 |
| c1ccc(CNc2ncnc3[nH]cnc23)cc1 [6-benzylaminopurine] | 98.3 | 106 | 98.9 | 109 | 98.4 | 99.9 | 98.4 | 120 | 97.3 | 112 | 97.1 | 104 | 95.6 | 95 | 104 | 106 | 97.9 | 103 | 99.5 | 100 | 97 | 107 | 90.8 | 109 | 112 | > 10 | > 10 | > 10 | > 10 | > 10 | 0 | 0 | 0 | 0 | 0 |
| Cc1c(F)cc(C(=O)NC2CC2)cc1-c1c(F)cn2c(C(C)(C)C)nnc2c1F [AL-8697] | 96.5 | 105 | 90.9 | 105 | 94.7 | 95.7 | 99.2 | 97 | 88.4 | 102 | 95.8 | 100 | 93.9 | 86.3 | 87 | 98.9 | 95.9 | 94.1 | 93.1 | 93.7 | 95.4 | 93.5 | 97.7 | 93.4 | 95.3 | > 10 | > 10 | > 10 | > 10 | > 10 | 0 | 0 | 1.4 | 0 | 0 |
| O=C(NC1CCNCC1)c1n[nH]cc1NC(=O)c1c(Cl)cccc1Cl [AT-7519] | 111 | 99.4 | 108 | 22.5 | 9.6 | 100 | 99 | 95.9 | 83.9 | 37.5 | 99.6 | 102 | 102 | 99.6 | 96.6 | 103 | 97.6 | 100 | 100 | 7 | 91.4 | 93.2 | 94.2 | 104 | 33.5 | 0.509 | 1.53 | > 10 | 3.19 | 3.46 | 14 | 5.9 | 0 | 5.2 | 3.3 |
